Test systems include SK-OV-3; U-251; DU-145; SNB-75; M14; OVCAR-4; OVCAR-5; CCRF-CEM; UACC-62; HCT-15; IGROV-1; CAKI-1; NCI-H226; SNB-19; HCC 2998; A498; NCI-H460; BT-549; SK-MEL-28; SK-MEL-5.
Holding throughout (experiment): NCI tumour cell line growth inhibition, 48 h

Molecules are shown by their SMILES.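 Compound exposure: 48 hours, 5 concentrations, 96-well plates. At the GI50, growth is halved.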 Activity calls are given as the source filed them. Rule as the data show it: active = GI50 up to about 1.1 µM and inactive = higher.

For the compound `O=C(O)CCN(CCC(=O)O)c1ccc(/C=C2\SC(=S)NC2=O)cc1`, the GI50 in the assay on SK-OV-3, in the assay on U-251, in the assay on DU-145, in the assay on SNB-75, in the assay on M14 and with OVCAR-4 was > 100 µM (inactive) each time. Moreover, the GI50 in the assay with OVCAR-5 is > 100 µM (inactive); in the assay with CCRF-CEM, > 100 µM (inactive); in the assay on UACC-62, > 100 µM (inactive); in the assay with HCT-15 it was over 100 µM; in the assay with IGROV-1, > 100 µM (inactive); in the assay with CAKI-1, > 100 µM (inactive). Besides, the GI50 in the assay with NCI-H226, in the assay on SNB-19, with HCC 2998, in the assay with A498, in the assay on NCI-H460 and in the assay on BT-549 was > 100 µM (inactive) each time. The GI50 in the assay on SK-MEL-28 and in the assay with SK-MEL-5 was > 100 µM (inactive) in each case.
Consider `C[C@@H]1[C@@H](C)C(c2ccccc2)O[Si]1(C(C)(C)C)C(C)(C)C` (stereo not given in full), for which the GI50 in the assay on SK-OV-3 is 26.5 µM (inactive); with U-251 it was 17 µM (inactive); in the assay on DU-145 it was 17.6 µM (inactive); in the assay on SNB-75, 16 µM (inactive); with M14, 18.2 µM (inactive); in the assay with OVCAR-4 it was 37.8 µM (inactive). Further, the GI50 is 17.6 µM (inactive) in the assay on OVCAR-5; 18.9 µM (inactive) in the assay on CCRF-CEM; 19.1 µM (inactive) with UACC-62; 23.1 µM in the assay with HCT-15; 16.7 µM (inactive) in the assay with IGROV-1; 17.1 µM (inactive) with CAKI-1. Moreover, the GI50 in the assay on NCI-H226 was 18.1 µM (inactive); with SNB-19 it was 13.8 µM (inactive); in the assay with HCC 2998, 19.8 µM (inactive); in the assay with A498 it was 16.6 µM (inactive); in the assay on NCI-H460 it was 17.4 µM (inactive); with BT-549, 24.4 µM (inactive). For the same compound, the GI50 is 24.9 µM (inactive) in the assay with SK-MEL-28 and 17.4 µM (inactive) in the assay on SK-MEL-5.
`CC(C)C[S+]1C2=C(CC(C)(C)CC2=O)[N-]c2ccccc21` (stereo not given): the GI50 in the assay with SK-OV-3, with U-251, in the assay on DU-145, with SNB-75, with M14 and in the assay on OVCAR-4 was > 100 µM (inactive) each time. The GI50 was > 100 µM (inactive) in the assay on OVCAR-5; > 100 µM (inactive) in the assay with CCRF-CEM; > 100 µM (inactive) in the assay on UACC-62; over 100 µM with HCT-15; > 100 µM (inactive) in the assay with IGROV-1; > 100 µM (inactive) in the assay on CAKI-1. Also, the GI50 in the assay on NCI-H226, with SNB-19, in the assay with HCC 2998, with A498, in the assay on NCI-H460 and in the assay with BT-549 was > 100 µM (inactive) in each case. The GI50 with SK-MEL-28 and in the assay with SK-MEL-5 was > 100 µM (inactive) in each case.
With `N=c1c2c3n(c4c(=O)n(-c5ccccc5)c(=S)n(c(=O)n1-c1ccccc1)c24)CCCCC3`, the GI50 in the assay on SK-OV-3 is > 81.1 µM (inactive); with U-251 it was > 100 µM (inactive); with DU-145 it was > 100 µM (inactive); in the assay on SNB-75, > 63.1 µM (inactive); with M14, > 100 µM (inactive); in the assay on OVCAR-4, > 100 µM (inactive). Also, the GI50 is > 100 µM (inactive) in the assay with OVCAR-5; > 100 µM (inactive) with CCRF-CEM; > 100 µM (inactive) in the assay with UACC-62; over 100 µM with HCT-15; > 100 µM (inactive) with IGROV-1; > 100 µM (inactive) in the assay with CAKI-1. Further, the GI50 is > 100 µM (inactive) with NCI-H226; > 100 µM (inactive) in the assay with SNB-19; > 100 µM (inactive) in the assay with HCC 2998; > 96.2 µM (inactive) in the assay on A498; > 100 µM (inactive) in the assay on NCI-H460; > 100 µM (inactive) with BT-549. Moreover, the GI50 in the assay on SK-MEL-28 and with SK-MEL-5 was > 100 µM (inactive) throughout.
Regarding `CCC(=O)/C=C/c1ccccc1`, the GI50 in the assay on SK-OV-3 is 31.3 µM (inactive); in the assay with U-251, 37.9 µM (inactive); in the assay with DU-145, > 100 µM (inactive); in the assay with SNB-75, > 100 µM (inactive); in the assay on M14, 52.8 µM (inactive); in the assay on OVCAR-4, 95.9 µM (inactive). In addition, the GI50 in the assay on OVCAR-5 is > 100 µM (inactive); in the assay with CCRF-CEM, 37.2 µM (inactive); in the assay with UACC-62, 37 µM (inactive); in the assay on HCT-15, 35.9 µM; in the assay with IGROV-1, 76.9 µM (inactive); in the assay on CAKI-1 it was 56.1 µM (inactive). Besides, the GI50 is > 100 µM (inactive) with NCI-H226; 44 µM (inactive) in the assay with SNB-19; 63.1 µM (inactive) with HCC 2998; 48.9 µM (inactive) in the assay on A498; 70.3 µM (inactive) in the assay on NCI-H460; 32.7 µM (inactive) in the assay on BT-549. The results for the GI50 in the assay on SK-MEL-28 and in the assay on SK-MEL-5 were 54 µM (inactive) and 33 µM (inactive), respectively.
`Cc1ccc(Cc2n[nH]c(=O)[nH]2)cc1`: the GI50 in the assay with SK-OV-3, in the assay on U-251, in the assay on DU-145, in the assay on SNB-75, in the assay on M14 and in the assay with OVCAR-4 was > 100 µM (inactive) throughout. Moreover, the GI50 in the assay on OVCAR-5 was > 100 µM (inactive); in the assay with CCRF-CEM, > 100 µM (inactive); in the assay with UACC-62 it was > 100 µM (inactive); with HCT-15 it was over 100 µM; in the assay with IGROV-1, > 100 µM (inactive); with CAKI-1 it was > 100 µM (inactive). The GI50 with NCI-H226, with SNB-19, in the assay with HCC 2998, with A498, with NCI-H460 and with BT-549 was > 100 µM (inactive) throughout. In addition, the GI50 in the assay with SK-MEL-28 and in the assay on SK-MEL-5 was > 100 µM (inactive) in each case.
In the case of `c1ccc2c(c1)-c1ccccc1C2N1CC2CCC(CC2)C1`, the GI50 in the assay with SK-OV-3 was 44.1 µM (inactive); in the assay with U-251, 17.1 µM (inactive); with DU-145, 29.9 µM (inactive); in the assay on SNB-75, 27 µM (inactive); with M14 it was 26.7 µM (inactive); in the assay on OVCAR-4 it was 31.9 µM (inactive). Further, the GI50 in the assay with OVCAR-5 was 18 µM (inactive); with CCRF-CEM it was 19.5 µM (inactive); in the assay on UACC-62, 19.9 µM (inactive); in the assay on HCT-15, 16.8 µM; in the assay on IGROV-1, 20.7 µM (inactive); in the assay on CAKI-1 it was 32 µM (inactive). In addition, the GI50 was 19.5 µM (inactive) with NCI-H226; 29.4 µM (inactive) in the assay on SNB-19; 16.9 µM (inactive) in the assay with HCC 2998; 20.3 µM (inactive) in the assay with A498; 19.8 µM (inactive) in the assay on NCI-H460; 16.8 µM (inactive) with BT-549. The GI50 is 33.3 µM (inactive) in the assay on SK-MEL-28 and 17.1 µM (inactive) with SK-MEL-5.
With `CC(C)(C)OC(=O)N(CCCCNCc1ccc2ccccc2c1)CCCNCc1ccc2ccccc2c1`, the GI50 was 1.94 µM (inactive) with SK-OV-3; 1.89 µM (inactive) in the assay on U-251; 1.69 µM (inactive) with DU-145; 1.52 µM (inactive) with SNB-75; 1.96 µM (inactive) in the assay with M14; 1.67 µM (inactive) with OVCAR-4. Moreover, the GI50 was 1.67 µM (inactive) with OVCAR-5; 1.22 µM (inactive) with CCRF-CEM; 1.66 µM (inactive) in the assay with UACC-62; 1.57 µM in the assay with HCT-15; 1.64 µM (inactive) in the assay on IGROV-1; 1.17 µM (inactive) in the assay with CAKI-1. For the same compound, the GI50 in the assay with NCI-H226 was 1.64 µM (inactive); in the assay on SNB-19, 1.76 µM (inactive); with HCC 2998 it was 0.254 µM (active); in the assay with A498, 1.91 µM (inactive); with NCI-H460, 0.736 µM (active); in the assay on BT-549 it was 1.73 µM (inactive). Also, the GI50 with SK-MEL-28 was 1.8 µM (inactive); with SK-MEL-5, 1.74 µM (inactive).
Consider `Cc1cc(S(=O)(=O)Nc2nnc3c(Cl)cc(C(F)(F)F)cn23)c(S)cc1Cl`, for which the GI50 in the assay with SK-OV-3 was 44.9 µM (inactive); in the assay with U-251, 36 µM (inactive); in the assay on DU-145, > 91.8 µM (inactive); in the assay with SNB-75, 4.88 µM (inactive); in the assay with M14 it was > 83.8 µM (inactive); in the assay with OVCAR-4 it was 66.5 µM (inactive). In addition, the GI50 in the assay with OVCAR-5 is > 100 µM (inactive); with CCRF-CEM, > 84.7 µM (inactive); in the assay on UACC-62 it was 48.9 µM (inactive); in the assay on HCT-15 it was 58.1 µM; with IGROV-1, 50.5 µM (inactive); in the assay on CAKI-1, > 89.3 µM (inactive). In addition, the GI50 in the assay with NCI-H226 was 23.3 µM (inactive); with SNB-19 it was 25.1 µM (inactive); in the assay on HCC 2998, 44.8 µM (inactive); in the assay on A498, > 100 µM (inactive); in the assay with NCI-H460, 41.8 µM (inactive); in the assay on BT-549, 25.9 µM (inactive). The GI50 in the assay on SK-MEL-28 is > 100 µM (inactive); in the assay on SK-MEL-5 it was 22.8 µM (inactive).
In the case of `COc1cc(OC)cc(-c2cc(=O)c3c(OC)c(OC)c(OC)c(OC)c3o2)c1`, the GI50 in the assay with SK-OV-3 is 5.93 µM (inactive); in the assay on U-251 it was 31.9 µM (inactive); in the assay with DU-145, 30.2 µM (inactive); in the assay with SNB-75 it was 20 µM (inactive); in the assay with M14 it was 37.2 µM (inactive); in the assay on OVCAR-4, 22.9 µM (inactive). The GI50 in the assay with OVCAR-5 was 47.3 µM (inactive); in the assay with CCRF-CEM, 20.5 µM (inactive); with UACC-62, 31.9 µM (inactive); in the assay on HCT-15, 33.3 µM; in the assay on IGROV-1, 32.2 µM (inactive); in the assay with CAKI-1, > 100 µM (inactive). In addition, the GI50 is 32.1 µM (inactive) in the assay on NCI-H226; 38.5 µM (inactive) in the assay with SNB-19; 31.7 µM (inactive) in the assay on HCC 2998; 23 µM (inactive) with A498; 29 µM (inactive) in the assay with NCI-H460; 41.1 µM (inactive) with BT-549. For the same compound, the GI50 is 40.3 µM (inactive) in the assay with SK-MEL-28 and 19.8 µM (inactive) in the assay on SK-MEL-5.
